Values of other authors in patent EP0775491A1, “IMMUNOPOTENTIATOR” (TAYCA CORPORATION, priority 1995, dated 1997).
Like-named read-outs stand apart in the source and are kept apart here.

Details: oral administration to rats

SMILES	LD50 [mg/kg]	LD50 (female) [mg/kg]	LD50 (male) [mg/kg]
COC(COC(N)=O)C1=C(N2CC2)C(=O)C(C)=C(N2CC2)C1=O (stereo not shown) [Carboquone]	27.3	–	–
O=P1(N(CCCl)CCCl)NCCCO1 (stereo not shown) [Cyclophosphide]	–	118	100
O=c1[nH]cc(F)c(=O)[nH]1 [Fluorouracil]	781	–	–
